Earlier results as cited in patent US8703719B1, “Method and composition for improved muscle performance” (Bio-Engineered Supplements and Nutrition, Inc., priority 2009, dated 2014).

Settings: oral; weight training individuals

C[N+](C)(C)CC(=O)[O-] [trimethylglycine (betaine), Trimethylglycine]
increase in bench-throw power compared with placebo: 16% | increase in isometric bench-press force compared with placebo: 28%
